This note sets out measurements from ChEMBL document CHEMBL1201862, “PubChem BioAssay data set” (2004).

Assay [1] concerns BJ. Kind of assay: BJ-TERT fibroblast viability loss – cell-based, RAS-independent, luminescence, dose response (AID 1933). Format: functional. The note with it: Homo sapiens.
Assay [2] concerns the target Luciferin 4-monooxygenase (Photinus pyralis, UniProt P08659). Put plainly: Counter Screen for Luciferase-based Assay Positives. [Related pubchem assays: 620, 618, 411 ]. A general note: A counterscreen serves to expose hits that act by an unwanted route or on another target.
In assay [3] the test system is BJ. Put plainly: cells. Format: functional, cell-based. The note with it: Homo sapiens.
In assay [4] the test system is HT-1080. Put plainly: HT1080 cell viability loss – fluorescence readout (AID 620). Format: functional, cell-based. Particulars: Homo sapiens.
In assay [5] the test system is BJ. Put plainly: BJ-TERT-LT-ST fibroblast viability loss – cell-based, RAS-independent, luminescence, dose response (AID 1935).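 Further: BJ fibroblasts immortalized with TERT plus LT and ST oncogenes.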 The format is functional. Particulars: Homo sapiens.
Assay [6] is described as follows: DRD fibroblast viability loss – cell-based, non-viral oncogenic, luminescence, dose response (AID 1934). Format: functional. Particulars: Homo sapiens.
The test system of assay [7] is HEK293. Kind of assay: EBV LMP1 TES2 canonical NF-kB signalling blockers – cell-based, HEK293, luciferase, cherry-pick, dose response (AID 588343). The format is functional. The note with it: Homo sapiens.
Assay [8] can be described thus: cells. The format is functional, cell-based.
Assay [9] concerns the target T1, Nuclear receptor subfamily 0 group B member 1 (Homo sapiens, UniProt P51843).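 Further: HEK293T cells transfected with SF-1 and DAX-1 plus StAR promoter luciferase reporter.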
T1 sequence (P51843 whole entry): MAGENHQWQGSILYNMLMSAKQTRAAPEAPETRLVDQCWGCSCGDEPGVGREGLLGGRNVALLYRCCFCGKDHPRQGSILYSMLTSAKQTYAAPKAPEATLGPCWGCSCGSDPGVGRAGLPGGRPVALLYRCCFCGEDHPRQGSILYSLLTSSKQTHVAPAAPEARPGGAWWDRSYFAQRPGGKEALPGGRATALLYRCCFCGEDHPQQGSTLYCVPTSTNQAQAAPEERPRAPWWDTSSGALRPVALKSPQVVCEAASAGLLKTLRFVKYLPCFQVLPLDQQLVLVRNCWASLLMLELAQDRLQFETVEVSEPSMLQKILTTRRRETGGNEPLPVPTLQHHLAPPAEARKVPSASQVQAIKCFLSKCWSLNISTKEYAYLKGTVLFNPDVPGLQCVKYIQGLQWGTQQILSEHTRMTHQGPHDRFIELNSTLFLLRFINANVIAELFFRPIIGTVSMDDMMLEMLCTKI
The format is functional, cell-based.

Assay [10] concerns the target Peroxisome proliferator-activated receptor gamma/Nuclear receptor coactivator 1 (Homo sapiens, UniProt P37231). Kind of assay: TR-FRET dose response biochemical High Throughput Screening assay for agonists of the steroid receptor coactivator 1 (SRC-1) recruitment by the peroxisome proliferator-activated receptor gamma (PPAR gamma): non-selective agonists. [Related pubchem assays (depositor defined):AID1300, AID1808, AID504735, AID631]. Format: protein assay. A general note: TR-FRET usually uses a lanthanide donor and a delayed reading to cut background.

Assay [11] has as its target Peroxisome proliferator-activated receptor gamma/Nuclear receptor coactivator 3 (Homo sapiens, UniProt P37231). Put plainly: TR-FRET dose response biochemical High Throughput Screening assay for agonists of the steroid receptor coactivator 3 (SRC-3) recruitment by the peroxisome proliferator-activated receptor gamma (PPAR gamma): non-selective agonists. [Related pubchem assays: 1301 (Confirmation screen.), 1048 (Primary screen.)]. Format: functional.

Assay [12] has as its target Peroxisome proliferator-activated receptor gamma/Nuclear receptor coactivator 2 (Homo sapiens, UniProt P37231). Put plainly: TR-FRET dose response biochemical High Throughput Screening assay for agonists of the steroid receptor coactivator 2 (SRC-2) recruitment by the peroxisome proliferator-activated receptor gamma (PPAR gamma): non-selective agonists. [Related pubchem assays: 1297, 1032 ]. The format is functional.

The target in assay [13] is Ephrin type-A receptor 4 (Mus musculus, UniProt Q03137). Kind of assay: EphA4 ligand-binding antagonists – biochemical, colorimetric, mouse EphA4, primary screen (AID 689). The format is functional.
Sequence of Ephrin type-A receptor 4 (Q03137 whole entry): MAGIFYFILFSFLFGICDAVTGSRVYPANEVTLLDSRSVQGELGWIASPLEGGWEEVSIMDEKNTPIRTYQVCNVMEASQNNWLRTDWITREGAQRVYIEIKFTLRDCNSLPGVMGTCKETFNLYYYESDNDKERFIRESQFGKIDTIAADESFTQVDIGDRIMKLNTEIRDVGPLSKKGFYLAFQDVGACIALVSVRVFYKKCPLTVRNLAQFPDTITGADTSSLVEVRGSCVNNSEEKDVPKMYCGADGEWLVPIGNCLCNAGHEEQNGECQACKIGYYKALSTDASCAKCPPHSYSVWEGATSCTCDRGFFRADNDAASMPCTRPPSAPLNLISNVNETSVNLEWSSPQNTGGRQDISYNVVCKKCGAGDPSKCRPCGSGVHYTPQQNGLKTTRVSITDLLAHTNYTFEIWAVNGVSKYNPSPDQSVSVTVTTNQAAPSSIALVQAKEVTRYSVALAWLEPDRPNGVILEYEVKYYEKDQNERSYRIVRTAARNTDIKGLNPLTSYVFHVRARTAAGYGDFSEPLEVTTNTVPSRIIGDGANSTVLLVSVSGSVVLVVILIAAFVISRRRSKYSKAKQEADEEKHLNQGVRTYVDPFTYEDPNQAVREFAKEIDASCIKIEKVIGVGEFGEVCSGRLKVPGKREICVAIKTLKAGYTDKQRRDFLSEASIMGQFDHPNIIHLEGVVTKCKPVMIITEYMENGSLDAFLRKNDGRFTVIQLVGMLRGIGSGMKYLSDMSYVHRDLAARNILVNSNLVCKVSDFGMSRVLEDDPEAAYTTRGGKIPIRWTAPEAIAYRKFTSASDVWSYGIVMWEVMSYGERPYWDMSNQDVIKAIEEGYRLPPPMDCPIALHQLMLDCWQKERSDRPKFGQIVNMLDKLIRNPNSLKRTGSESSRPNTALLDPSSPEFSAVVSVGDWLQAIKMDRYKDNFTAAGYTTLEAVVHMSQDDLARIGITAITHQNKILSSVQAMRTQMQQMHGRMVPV
The target in assay [14] is Nonstructural protein 1 (Influenza A virus, UniProt Q194T2). Format: functional, Influenza A virus (A/California/07/2009(H1N1)).
Sequence of Nonstructural protein 1 (Q194T2 whole entry): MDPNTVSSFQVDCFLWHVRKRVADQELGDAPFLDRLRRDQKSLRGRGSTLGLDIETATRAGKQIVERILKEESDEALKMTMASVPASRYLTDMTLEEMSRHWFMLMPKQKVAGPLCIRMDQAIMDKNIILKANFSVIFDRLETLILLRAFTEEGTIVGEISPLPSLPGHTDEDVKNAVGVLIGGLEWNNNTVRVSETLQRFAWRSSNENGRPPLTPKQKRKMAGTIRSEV
In assay [15] the target is 26S proteasome non-ATPase regulatory subunit 14 (Homo sapiens, UniProt O00487). Kind of assay: inhibition of proteasome subunit RPN11 – biochemical, fluorescence polarization, uHTS hits, confirmation (AID 602368). The format is functional. Background: Polarisation of emitted light reports the rotation of a fluorescent probe.
In assay [16] the target is 72 kDa type IV collagenase (Homo sapiens, UniProt P08253). Kind of assay: Dose Response validation of uHTS RPN11 inhibitor hits using a MMP-2 Fluorescence assay. Format: functional.
Sequence of 72 kDa type IV collagenase (P08253 whole entry): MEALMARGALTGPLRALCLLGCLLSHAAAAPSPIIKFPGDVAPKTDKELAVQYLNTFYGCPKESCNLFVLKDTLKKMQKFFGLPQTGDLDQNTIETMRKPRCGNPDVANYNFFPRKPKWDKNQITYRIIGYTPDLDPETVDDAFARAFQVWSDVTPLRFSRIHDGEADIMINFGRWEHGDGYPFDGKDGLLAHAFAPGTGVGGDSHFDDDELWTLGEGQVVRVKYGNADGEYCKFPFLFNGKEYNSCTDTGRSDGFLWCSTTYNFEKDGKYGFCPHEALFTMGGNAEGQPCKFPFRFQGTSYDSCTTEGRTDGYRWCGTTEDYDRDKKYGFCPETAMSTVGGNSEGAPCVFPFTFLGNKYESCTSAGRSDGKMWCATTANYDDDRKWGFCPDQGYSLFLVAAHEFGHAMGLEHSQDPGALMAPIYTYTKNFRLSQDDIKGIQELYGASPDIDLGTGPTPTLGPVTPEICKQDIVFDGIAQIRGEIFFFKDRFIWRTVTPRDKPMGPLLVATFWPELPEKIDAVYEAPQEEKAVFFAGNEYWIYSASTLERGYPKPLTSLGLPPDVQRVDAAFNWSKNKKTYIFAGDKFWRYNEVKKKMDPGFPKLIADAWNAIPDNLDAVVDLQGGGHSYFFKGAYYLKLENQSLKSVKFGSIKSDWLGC
Assay [17] deals with Prothrombin (Bos taurus, UniProt P00735). Kind of assay: thrombin protease inhibitors – biochemical, fluorescence polarization, uHTS hits, dose response (AID 602369). Format: functional.
Assay [18] is described as follows: HPDE-C7 pancreatic duct cell viability loss – fluorescence, HTS (AID 430). Format: functional, cell-based. The note with it: Homo sapiens.
Assay [19] in a line: Trypanosoma cruzi growth suppression in host cells – NIH3T3 host cells, beta-gal luminescence, confirmation (AID 2044).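 Further: intracellular parasites grown in NIH/3T3 mouse fibroblasts as host cells; luminescent beta-galactosidase reporter signal from transgenic T. cruzi replicating inside host cells; inhibitors lower the luminescence signal.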 The format is functional, cell-based.
Assay [20] in a line: viability loss of HPDE-C7K cells – cell-based, fluorescence, HTS, primary screen (AID 431). The format is functional. The note with it: Homo sapiens.
A short description of assay [21]: NIH3T3 cell viability loss – ATP luminescence, mouse fibroblasts, counter-screen, dose response (AID 2010).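 Further: cells exposed to compound for about 90 hours before reading.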 Format: functional, cell-based.
Assay [22] has as its target Glucose-6-phosphate 1-dehydrogenase (Homo sapiens, UniProt P11413). Kind of assay: inhibition of Homo sapiens G6PD, dose series – biochemical, fluorescence, selectivity assay for P. falciparum G6PD inhibitor project, dose response (AID 504792). Format: functional.
The target of assay [23] is Neurotensin receptor type 1 (Homo sapiens, UniProt P30989). Format: functional.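 Further: Image-based confirmatory dose-response assay measuring agonist activity at NTR1; NTR1-expressing U2OS osteosarcoma cells imaged for beta-arrestin GFP spot formation; agonist potency where compounds increase beta-arrestin recruitment.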
Assay [24] deals with Vero. Kind of assay: cells. The format is functional. Particulars: Chlorocebus sabaeus.
A short description of assay [25]: reduction of Shn3 3'UTR-driven luciferase in osteoblasts – cell-based, Clone20 osteoblasts, firefly luciferase, cherry-picked, dose response (AID 624132).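 Further: firefly luciferase luminescence from reporter carrying the Shn3 3'UTR in osteoblasts.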 The format is functional.
The nature of assay [26]: loss of viability in HepG2 cells – cell-based, CellTiter-Glo, cherry-picked, cytotoxicity control for Shn3 inhibitor project, dose response (AID 624134). Format: functional.
Assay [27] is described as follows: non-specific 3'UTR reporter inhibition in Clone20-Shn3RL – cell-based, Renilla luciferase, cherry-picked, counter-screen for Shn3 inhibitor project, dose response (AID 624133). The format is functional.
Assay [28] has as its target T2, E3 ubiquitin-protein ligase XIAP (Homo sapiens, UniProt P98170). Kind of assay: Counter Screen using XIAP-Bir3 for Chemical Antagonists of Bir1/2 domains of IAP-family anti-apoptotic proteins. [Related pubchem assays (depositor defined):AID1018, AID1449, AID1514, AID1638, AID1749, AID1750, AID488957, AID488963].
For assay [29], the target named is T2, E3 ubiquitin-protein ligase XIAP. Kind of assay: small molecules displacing peptide from XIAP – biochemical, IAP family, fluorescence polarization (AID 1018). Format: functional.
Assay [30] concerns the target T3, Corticotropin-releasing factor receptor 2/Corticotropin-releasing factor-binding protein (Homo sapiens, UniProt P24387+Q13324).
T3 sequence (Q13324 whole entry): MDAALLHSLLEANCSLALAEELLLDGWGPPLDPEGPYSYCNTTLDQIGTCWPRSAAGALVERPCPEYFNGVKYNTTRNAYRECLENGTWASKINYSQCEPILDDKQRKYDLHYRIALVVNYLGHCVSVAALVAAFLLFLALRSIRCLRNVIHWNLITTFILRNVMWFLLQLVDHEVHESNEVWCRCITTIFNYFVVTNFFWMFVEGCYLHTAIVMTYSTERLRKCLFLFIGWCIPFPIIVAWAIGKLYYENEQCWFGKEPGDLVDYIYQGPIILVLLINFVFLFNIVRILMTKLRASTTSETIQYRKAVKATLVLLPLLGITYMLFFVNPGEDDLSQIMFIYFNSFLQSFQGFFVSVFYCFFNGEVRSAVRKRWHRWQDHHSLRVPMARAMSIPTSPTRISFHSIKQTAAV
T3 sequence (P24387 whole entry): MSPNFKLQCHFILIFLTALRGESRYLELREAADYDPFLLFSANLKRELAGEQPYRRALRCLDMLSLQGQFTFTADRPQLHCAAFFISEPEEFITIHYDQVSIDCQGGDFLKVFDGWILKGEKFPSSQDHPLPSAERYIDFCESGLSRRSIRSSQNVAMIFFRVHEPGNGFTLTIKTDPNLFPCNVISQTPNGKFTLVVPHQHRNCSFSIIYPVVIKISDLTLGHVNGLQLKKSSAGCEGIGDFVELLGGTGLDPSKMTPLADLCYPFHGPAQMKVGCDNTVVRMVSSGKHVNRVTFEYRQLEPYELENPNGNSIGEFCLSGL
Put plainly: Dose Response confirmation of uHTS hits for small molecule antagonists of the CRF-binding protein and CRF-R2 receptor complex. The format is functional. Particulars: read-out: IC50_Mean.

Assay [31] addresses T3, Corticotropin-releasing factor receptor 2/Corticotropin-releasing factor-binding protein. Kind of assay: activators of CRF receptor 2 with binding protein – uHTS hits, confirmation (AID 602473). Format: functional. Particulars: read-out: EC50_Mean.
Assay [32] addresses T4, Estrogen receptor (Homo sapiens, UniProt P03372).
T4 sequence (P03372 whole entry): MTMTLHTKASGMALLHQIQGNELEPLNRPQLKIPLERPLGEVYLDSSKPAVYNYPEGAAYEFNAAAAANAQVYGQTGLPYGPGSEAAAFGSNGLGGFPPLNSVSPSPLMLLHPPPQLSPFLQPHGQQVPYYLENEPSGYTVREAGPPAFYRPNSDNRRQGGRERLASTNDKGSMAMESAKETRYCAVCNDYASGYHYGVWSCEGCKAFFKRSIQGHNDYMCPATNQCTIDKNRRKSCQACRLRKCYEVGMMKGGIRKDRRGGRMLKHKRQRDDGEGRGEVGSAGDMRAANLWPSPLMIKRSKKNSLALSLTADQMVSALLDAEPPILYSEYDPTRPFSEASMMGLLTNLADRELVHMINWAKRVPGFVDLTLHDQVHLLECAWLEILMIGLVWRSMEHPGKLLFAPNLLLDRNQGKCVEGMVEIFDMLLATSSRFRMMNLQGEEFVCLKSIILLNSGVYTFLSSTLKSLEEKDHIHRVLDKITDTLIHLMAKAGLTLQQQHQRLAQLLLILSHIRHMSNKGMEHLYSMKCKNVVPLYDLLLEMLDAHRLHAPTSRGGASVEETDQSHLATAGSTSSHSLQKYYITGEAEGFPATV

The structures appear in SMILES notation. Activity calls are given as the source filed them. A value given as a limit tells only on which side of the number the result lay.

T2 sequence (P98170 whole entry): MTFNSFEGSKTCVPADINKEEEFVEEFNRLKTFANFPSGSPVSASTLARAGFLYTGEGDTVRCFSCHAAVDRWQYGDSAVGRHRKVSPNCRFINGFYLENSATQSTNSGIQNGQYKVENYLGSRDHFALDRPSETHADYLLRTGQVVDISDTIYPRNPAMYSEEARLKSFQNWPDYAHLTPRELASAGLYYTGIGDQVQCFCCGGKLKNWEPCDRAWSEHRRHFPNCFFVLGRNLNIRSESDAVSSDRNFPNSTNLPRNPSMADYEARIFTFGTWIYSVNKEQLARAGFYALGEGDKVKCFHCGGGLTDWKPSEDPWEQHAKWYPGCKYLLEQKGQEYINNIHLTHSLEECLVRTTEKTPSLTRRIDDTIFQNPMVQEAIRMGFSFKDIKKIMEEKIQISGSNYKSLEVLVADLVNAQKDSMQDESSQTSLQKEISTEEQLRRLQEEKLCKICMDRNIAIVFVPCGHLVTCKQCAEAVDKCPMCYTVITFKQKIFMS
Sequence of Glucose-6-phosphate 1-dehydrogenase (P11413 whole entry): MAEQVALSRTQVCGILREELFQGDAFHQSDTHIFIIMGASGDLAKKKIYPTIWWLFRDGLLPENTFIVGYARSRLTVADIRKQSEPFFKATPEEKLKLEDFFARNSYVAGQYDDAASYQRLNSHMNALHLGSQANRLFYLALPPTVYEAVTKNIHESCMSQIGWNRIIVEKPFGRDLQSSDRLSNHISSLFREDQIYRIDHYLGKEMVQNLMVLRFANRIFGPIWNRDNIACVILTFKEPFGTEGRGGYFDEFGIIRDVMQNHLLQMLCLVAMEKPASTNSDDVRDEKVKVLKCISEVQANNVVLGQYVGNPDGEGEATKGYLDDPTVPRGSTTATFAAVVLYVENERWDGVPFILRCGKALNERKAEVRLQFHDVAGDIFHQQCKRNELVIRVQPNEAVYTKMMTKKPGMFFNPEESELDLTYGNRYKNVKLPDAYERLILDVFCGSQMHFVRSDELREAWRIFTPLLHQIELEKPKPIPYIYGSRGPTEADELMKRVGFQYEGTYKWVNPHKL
Sequence of Peroxisome proliferator-activated receptor gamma/Nuclear receptor coactivator 3 (P37231 whole entry): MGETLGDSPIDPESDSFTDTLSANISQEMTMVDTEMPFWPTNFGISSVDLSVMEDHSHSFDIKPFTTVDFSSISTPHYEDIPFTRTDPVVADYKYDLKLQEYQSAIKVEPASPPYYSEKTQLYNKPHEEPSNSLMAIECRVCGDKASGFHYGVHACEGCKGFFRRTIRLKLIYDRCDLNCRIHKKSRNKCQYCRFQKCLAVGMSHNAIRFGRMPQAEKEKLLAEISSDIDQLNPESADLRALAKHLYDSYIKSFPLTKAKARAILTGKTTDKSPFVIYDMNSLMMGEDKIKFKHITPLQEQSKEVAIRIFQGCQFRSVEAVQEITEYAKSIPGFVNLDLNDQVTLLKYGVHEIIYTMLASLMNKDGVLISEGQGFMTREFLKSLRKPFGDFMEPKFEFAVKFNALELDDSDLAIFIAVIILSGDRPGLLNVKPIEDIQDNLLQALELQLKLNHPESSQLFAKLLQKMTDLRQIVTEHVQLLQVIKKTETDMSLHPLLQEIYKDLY
Sequence of Peroxisome proliferator-activated receptor gamma/Nuclear receptor coactivator 3 (Q9Y6Q9 whole entry, further chain): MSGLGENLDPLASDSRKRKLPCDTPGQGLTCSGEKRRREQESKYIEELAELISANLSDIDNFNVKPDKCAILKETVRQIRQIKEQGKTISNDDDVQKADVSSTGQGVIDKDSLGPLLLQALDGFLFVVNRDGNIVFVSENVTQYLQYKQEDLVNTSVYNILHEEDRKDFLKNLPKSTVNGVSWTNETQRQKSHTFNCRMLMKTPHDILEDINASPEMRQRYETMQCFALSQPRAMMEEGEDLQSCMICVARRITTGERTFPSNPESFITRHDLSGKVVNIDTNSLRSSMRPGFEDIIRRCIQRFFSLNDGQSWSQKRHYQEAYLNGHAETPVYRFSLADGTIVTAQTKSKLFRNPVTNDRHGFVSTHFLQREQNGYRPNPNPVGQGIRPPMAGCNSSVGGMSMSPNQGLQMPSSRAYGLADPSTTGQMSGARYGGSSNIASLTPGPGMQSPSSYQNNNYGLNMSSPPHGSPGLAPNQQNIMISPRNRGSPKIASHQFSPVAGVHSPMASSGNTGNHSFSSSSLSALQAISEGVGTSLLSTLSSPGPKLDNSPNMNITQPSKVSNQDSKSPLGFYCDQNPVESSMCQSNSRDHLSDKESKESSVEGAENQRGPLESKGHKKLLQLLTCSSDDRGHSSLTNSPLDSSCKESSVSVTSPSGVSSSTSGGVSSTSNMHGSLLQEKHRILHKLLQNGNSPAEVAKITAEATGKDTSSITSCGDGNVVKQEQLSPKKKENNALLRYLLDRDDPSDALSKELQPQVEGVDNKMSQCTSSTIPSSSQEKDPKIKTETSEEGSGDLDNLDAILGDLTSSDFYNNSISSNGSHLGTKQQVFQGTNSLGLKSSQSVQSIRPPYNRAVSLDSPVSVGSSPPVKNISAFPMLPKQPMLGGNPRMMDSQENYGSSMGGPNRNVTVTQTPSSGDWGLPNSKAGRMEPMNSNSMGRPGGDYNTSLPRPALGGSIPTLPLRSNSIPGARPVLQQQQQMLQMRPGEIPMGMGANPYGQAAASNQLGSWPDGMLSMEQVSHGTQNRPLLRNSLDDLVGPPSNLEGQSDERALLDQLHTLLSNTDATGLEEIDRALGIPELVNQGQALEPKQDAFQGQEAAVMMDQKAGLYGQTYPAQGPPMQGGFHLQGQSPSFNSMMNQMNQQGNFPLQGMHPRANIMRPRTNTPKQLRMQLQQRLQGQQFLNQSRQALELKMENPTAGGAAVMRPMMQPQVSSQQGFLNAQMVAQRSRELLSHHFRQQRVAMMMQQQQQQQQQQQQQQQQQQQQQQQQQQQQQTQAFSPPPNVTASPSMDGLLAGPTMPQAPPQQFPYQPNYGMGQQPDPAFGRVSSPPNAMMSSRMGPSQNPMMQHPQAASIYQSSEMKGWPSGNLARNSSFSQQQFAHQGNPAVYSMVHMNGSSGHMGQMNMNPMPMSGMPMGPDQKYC

One may read the AC50 as the concentration at which the activity in the assay is half-maximal. For the molecule `c1ccc(C2=NN=C(NC3CC3)SC2)cc1`, the EC50 in [1] is 13.1 µM (active); in assay [2], 1.24 µM (active); in assay [3] it was 12.4 µM (inconclusive); in assay [4], > 50 µM (not active); in [5], > 150 µM (inconclusive); in assay [6], 10.5 µM (active). In addition, the concentration at half-maximal activity (AC50) in [7] was 2.58 µM (active). In addition, the IC50 in [8] and in assay [9] was > 67.6 µM (inactive) throughout.

As to `CN(C)c1ccc(/C=C/C=C2/SC(=S)N(c3ccccc3)C2=O)cc1`, the EC50 in [10] is > 79.4 µM (inactive); in assay [11], > 79.4 µM (not active); in assay [12], > 79.4 µM (not active). The IC50 was 0.6 µM (active) in assay [13]; 5.48 µM (active) in assay [14]; 0.703 µM (active) in assay [15]; > 100 µM (inactive) in assay [16]; 0.529 µM (active) in assay [17].

In general, CC50 refers to the concentration giving 50% cytotoxicity. On to `O=C(Nc1ccc(N2CCN(C(=O)c3ccco3)CC2)c(Cl)c1)c1cc2ccccc2o1`, for which the EC50 in assay [18] is 17.5 µM (active); in assay [19], 2.3 µM (active); in assay [20], 16.2 µM (active); in assay [21], 8.95 µM (active); in assay [23] it was 6 µM (active). Further, in assay [22], the IC50 is > 80 µM (inactive). Besides, in assay [24], the CC50 is 11.2 µM (active). Moreover, the AC50 in [25] was 5 µM (active); in assay [26], 7.49 µM (active); in [27], 17.6 µM (active).

As to `COc1ccc(Cl)cc1NC(=O)CNc1ccccc1F`, the results for the IC50 in assay [28], in assay [29] and in [30] were > 100 µM (inactive), > 100 µM (not active) and > 47.1 µM (inactive), respectively. Moreover, the EC50 in assay [31] is > 53 µM (inactive).

Turning to `Cc1nnc(NC(=O)CSc2nc3c(c(=O)n2CCc2ccccc2)SC(C)C3)s1` (configuration not stated), the IC50 in assay [32] is 17.5 µM (active).
